# Laboratory results published in patent publication US20230085307A1, “PYRIDAZINONE COMPOUND AND HERBICIDE” (NISSAN CHEMICAL CORPORATION, priority 2019, published 2023).
# Columns and labels:
# barnyard grass [1] = assay: Test Example 5: herbicidal effect by foliage application, plastic box (Table 20, symbol H); format: in vivo, barnyard grass (Echinochloa crus-galli); conditions: foliage application, 320 g/ha, evaluated three weeks after application
# Summary of the method: (§1)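 Post-emergence foliar test in sterilized diluvial soil. Compound applied as water-diluted emulsion at a predetermined rate to 14-day-old plants; evaluation at three weeks.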
# green foxtail [2] = assay: Test Example 5: herbicidal effect by foliage application, plastic box (Table 20, symbol G); format: in vivo, green foxtail (Setaria viridis); conditions: foliage application, 320 g/ha, evaluated three weeks after application
# Summary of the method: as §1
# Italian ryegrass [3] = assay: Test Example 5: herbicidal effect by foliage application, plastic box (Table 20, symbol K); format: in vivo, Italian ryegrass (Lolium multiflorum); conditions: foliage application, 320 g/ha, evaluated three weeks after application
# Summary of the method: as §1
# lambsquarters [4] = assay: Test Example 4: herbicidal effect by soil treatment (Table 19, symbol O); format: in vivo, lambsquarters (Chenopodium album); conditions: amount of applied herbicide 320 g/ha
# Summary of the method: (§2)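 Scoring uses the grading scale of an earlier test, three weeks post-application. Treatment consists of spraying a diluted emulsion formulation across the surface of sterilized diluvial soil in which seeds are buried near 1.5 cm deep; boxes are kept in a greenhouse between 25° C. and 30° C.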
# blackgrass [5] = assay: Test Example 5: herbicidal effect by foliage application, plastic box (Table 20, symbol J); format: in vivo, blackgrass (Alopecurus myosuroides); conditions: foliage application, 320 g/ha, evaluated three weeks after application
# Summary of the method: as §1
# redroot pigweed [6] = assay: Test Example 5: herbicidal effect by foliage application, plastic box (Table 20, symbol N); format: in vivo, redroot pigweed (Amaranthus retroflexus); conditions: foliage application, 320 g/ha, evaluated three weeks after application
# Summary of the method: as §1
# windgrass [7] = assay: Test Example 5: herbicidal effect by foliage application, plastic box (Table 20, symbol L); format: in vivo, windgrass (Apera spica-venti); conditions: foliage application, 320 g/ha, evaluated three weeks after application
# Summary of the method: as §1
# chickweed [8] = assay: Test Example 4: herbicidal effect by soil treatment (Table 19, symbol P); format: in vivo, common chickweed (Stellaria media); conditions: amount of applied herbicide 320 g/ha
# Summary of the method: as §2
# barnyard grass [9] = assay: Test Example 3: herbicidal effect by foliage application, Wagner pot (Table 18, symbol H); format: in vivo, barnyard grass (Echinochloa crus-galli); conditions: amount of applied herbicide 320 g/ha
# Summary of the method: (§3)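 Plants were sown in alluvial soil held under 0.1–0.5 cm standing water and grown 14 days in a greenhouse at 25–30 °C. An emulsifiable formulation, water-diluted to the set dose, was then sprayed onto the foliage, and effects were scored three weeks later using previously defined criteria.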
# persian speedwell [10] = assay: Test Example 4: herbicidal effect by soil treatment (Table 19, symbol R); format: in vivo, Persian speedwell (Veronica persica); conditions: amount of applied herbicide 320 g/ha
# Summary of the method: as §2
# southern crabgrass [11] = assay: Test Example 5: herbicidal effect by foliage application, plastic box (Table 20, symbol F); format: in vivo, southern crabgrass (Digitaria ciliaris); conditions: foliage application, 320 g/ha, evaluated three weeks after application
# Summary of the method: as §1
# persian speedwell [12] = assay: Test Example 5: herbicidal effect by foliage application, plastic box (Table 20, symbol R); format: in vivo, Persian speedwell (Veronica persica); conditions: foliage application, 320 g/ha, evaluated three weeks after application
# Summary of the method: as §1
# rice flat sedge = assay: Test Example 3: herbicidal effect by foliage application, Wagner pot (Table 18, symbol E); format: in vivo, rice flat sedge (Cyperus iria); conditions: amount of applied herbicide 320 g/ha
# Summary of the method: as §3
# chickweed [13] = assay: Test Example 5: herbicidal effect by foliage application, plastic box (Table 20, symbol P); format: in vivo, common chickweed (Stellaria media); conditions: foliage application, 320 g/ha, evaluated three weeks after application
# Summary of the method: as §1
# wild oat [14] = assay: Test Example 5: herbicidal effect by foliage application, plastic box (Table 20, symbol I); format: in vivo, wild oat (Avena fatua); conditions: foliage application, 320 g/ha, evaluated three weeks after application
# Summary of the method: as §1
# lambsquarters [15] = assay: Test Example 5: herbicidal effect by foliage application, plastic box (Table 20, symbol O); format: in vivo, lambsquarters (Chenopodium album); conditions: foliage application, 320 g/ha, evaluated three weeks after application
# Summary of the method: as §1
# redroot pigweed [16] = assay: Test Example 4: herbicidal effect by soil treatment (Table 19, symbol N); format: in vivo, redroot pigweed (Amaranthus retroflexus); conditions: amount of applied herbicide 320 g/ha
# Summary of the method: as §2
# green foxtail [17] = assay: Test Example 4: herbicidal effect by soil treatment (Table 19, symbol G); format: in vivo, green foxtail (Setaria viridis); conditions: amount of applied herbicide 320 g/ha
# Summary of the method: as §2
# velvetleaf [18] = assay: Test Example 5: herbicidal effect by foliage application, plastic box (Table 20, symbol M); format: in vivo, velvetleaf (Abutilon theophrasti); conditions: foliage application, 320 g/ha, evaluated three weeks after application
# Summary of the method: as §1
# Chinese sprangletop = assay: Test Example 3: herbicidal effect by foliage application, Wagner pot (Table 18, symbol D); format: in vivo, chinese sprangletop (Leptochloa chinensis); conditions: amount of applied herbicide 320 g/ha
# Summary of the method: as §3
# Italian ryegrass [19] = assay: Test Example 4: herbicidal effect by soil treatment (Table 19, symbol K); format: in vivo, Italian ryegrass (Lolium multiflorum); conditions: amount of applied herbicide 320 g/ha
# Summary of the method: as §2
# blackgrass [20] = assay: Test Example 4: herbicidal effect by soil treatment (Table 19, symbol J); format: in vivo, blackgrass (Alopecurus myosuroides); conditions: amount of applied herbicide 320 g/ha
# Summary of the method: as §2
# wild oat [21] = assay: Test Example 4: herbicidal effect by soil treatment (Table 19, symbol I); format: in vivo, wild oat (Avena fatua); conditions: amount of applied herbicide 320 g/ha
# Summary of the method: as §2
# velvetleaf [22] = assay: Test Example 4: herbicidal effect by soil treatment (Table 19, symbol M); format: in vivo, velvetleaf (Abutilon theophrasti); conditions: amount of applied herbicide 320 g/ha
# Summary of the method: as §2
# southern crabgrass [23] = assay: Test Example 4: herbicidal effect by soil treatment (Table 19, symbol F); format: in vivo, southern crabgrass (Digitaria ciliaris); conditions: amount of applied herbicide 320 g/ha
# Summary of the method: as §2
# windgrass [24] = assay: Test Example 4: herbicidal effect by soil treatment (Table 19, symbol L); format: in vivo, windgrass (Apera spica-venti); conditions: amount of applied herbicide 320 g/ha
# Summary of the method: as §2
# barnyard grass [25] = assay: Test Example 4: herbicidal effect by soil treatment (Table 19, symbol H); format: in vivo, barnyard grass (Echinochloa crus-galli); conditions: amount of applied herbicide 320 g/ha
# Summary of the method: as §2
structure (smiles),measurement,setting,value
COc1ccccc1-c1sc2ccc(NC(=O)OC(C)(C)C)cc2c1-c1c(O)c(C)nn(C)c1=O [2-181],herbicidal effect on H: barnyard grass (criteria 0-5),barnyard grass [1],0 (Herbicidal rate of 5% or less (almost no effect))
same,herbicidal effect on G: green foxtail (criteria 0-5),green foxtail [2],1 (Herbicidal rate of 5% or more and less than 20%)
same,herbicidal effect on K: Italian ryegrass (criteria 0-5),Italian ryegrass [3],0 (Herbicidal rate of 5% or less (almost no effect))
same,"O: lambsquarters, herbicidal effect rating",lambsquarters [4],4 (Herbicidal rate of 70% or more and less than 90%)
same,herbicidal effect on J: blackgrass (criteria 0-5),blackgrass [5],0 (Herbicidal rate of 5% or less (almost no effect))
same,herbicidal effect on N: redroot pigweed (criteria 0-5),redroot pigweed [6],5 (Herbicidal rate of 90% or more (almost completely withered))
same,herbicidal effect on L: windgrass (criteria 0-5),windgrass [7],0 (Herbicidal rate of 5% or less (almost no effect))
same,"P: chickweed, herbicidal effect rating",chickweed [8],4 (Herbicidal rate of 70% or more and less than 90%)
same,herbicidal effect on H: barnyard grass,barnyard grass [9],2 (Herbicidal rate of 20% or more and less than 40%)
same,"R: persian speedwell, herbicidal effect rating",persian speedwell [10],4 (Herbicidal rate of 70% or more and less than 90%)
same,herbicidal effect on F: southern crabgrass (criteria 0-5),southern crabgrass [11],0 (Herbicidal rate of 5% or less (almost no effect))
same,herbicidal effect on R: persian speedwell (criteria 0-5),persian speedwell [12],5 (Herbicidal rate of 90% or more (almost completely withered))
same,herbicidal effect on E: rice flat sedge,rice flat sedge,0 (Herbicidal rate of 5% or less (almost no effect))
same,herbicidal effect on P: chickweed (criteria 0-5),chickweed [13],5 (Herbicidal rate of 90% or more (almost completely withered))
same,herbicidal effect on I: wild oat (criteria 0-5),wild oat [14],0 (Herbicidal rate of 5% or less (almost no effect))
same,herbicidal effect on O: lambsquarters (criteria 0-5),lambsquarters [15],4 (Herbicidal rate of 70% or more and less than 90%)
same,"N: redroot pigweed, herbicidal effect rating",redroot pigweed [16],3 (Herbicidal rate of 40% or more and less than 70%)
same,"G: green foxtail, herbicidal effect rating",green foxtail [17],0 (Herbicidal rate of 5% or less (almost no effect))
same,herbicidal effect on M: velvetleaf (criteria 0-5),velvetleaf [18],3 (Herbicidal rate of 40% or more and less than 70%)
same,herbicidal effect on D: Chinese sprangletop,Chinese sprangletop,3 (Herbicidal rate of 40% or more and less than 70%)
same,"K: Italian ryegrass, herbicidal effect rating",Italian ryegrass [19],0 (Herbicidal rate of 5% or less (almost no effect))
same,"J: blackgrass, herbicidal effect rating",blackgrass [20],0 (Herbicidal rate of 5% or less (almost no effect))
same,"I: wild oat, herbicidal effect rating",wild oat [21],0 (Herbicidal rate of 5% or less (almost no effect))
same,"M: velvetleaf, herbicidal effect rating",velvetleaf [22],0 (Herbicidal rate of 5% or less (almost no effect))
same,"F: southern crabgrass, herbicidal effect rating",southern crabgrass [23],0 (Herbicidal rate of 5% or less (almost no effect))
same,"L: windgrass, herbicidal effect rating",windgrass [24],0 (Herbicidal rate of 5% or less (almost no effect))
same,"H: barnyard grass, herbicidal effect rating",barnyard grass [25],0 (Herbicidal rate of 5% or less (almost no effect))
CCCC(=O)Oc1c(C)nn(C)c(=O)c1-c1c(-c2cccc(OCC)c2)sc2ccc(F)cc12 [2-212],herbicidal effect on H: barnyard grass (criteria 0-5),barnyard grass [1],4 (Herbicidal rate of 70% or more and less than 90%)
same,herbicidal effect on G: green foxtail (criteria 0-5),green foxtail [2],5 (Herbicidal rate of 90% or more (almost completely withered))
same,herbicidal effect on K: Italian ryegrass (criteria 0-5),Italian ryegrass [3],4 (Herbicidal rate of 70% or more and less than 90%)
same,"O: lambsquarters, herbicidal effect rating",lambsquarters [4],1 (Herbicidal rate of 5% or more and less than 20%)
same,herbicidal effect on J: blackgrass (criteria 0-5),blackgrass [5],0 (Herbicidal rate of 5% or less (almost no effect))
same,herbicidal effect on N: redroot pigweed (criteria 0-5),redroot pigweed [6],5 (Herbicidal rate of 90% or more (almost completely withered))
same,herbicidal effect on L: windgrass (criteria 0-5),windgrass [7],3 (Herbicidal rate of 40% or more and less than 70%)
same,"P: chickweed, herbicidal effect rating",chickweed [8],1 (Herbicidal rate of 5% or more and less than 20%)
same,herbicidal effect on H: barnyard grass,barnyard grass [9],5 (Herbicidal rate of 90% or more (almost completely withered))
same,"R: persian speedwell, herbicidal effect rating",persian speedwell [10],4 (Herbicidal rate of 70% or more and less than 90%)
same,herbicidal effect on F: southern crabgrass (criteria 0-5),southern crabgrass [11],5 (Herbicidal rate of 90% or more (almost completely withered))
same,herbicidal effect on R: persian speedwell (criteria 0-5),persian speedwell [12],5 (Herbicidal rate of 90% or more (almost completely withered))
same,herbicidal effect on E: rice flat sedge,rice flat sedge,4 (Herbicidal rate of 70% or more and less than 90%)
same,herbicidal effect on P: chickweed (criteria 0-5),chickweed [13],5 (Herbicidal rate of 90% or more (almost completely withered))
same,herbicidal effect on I: wild oat (criteria 0-5),wild oat [14],0 (Herbicidal rate of 5% or less (almost no effect))
same,herbicidal effect on O: lambsquarters (criteria 0-5),lambsquarters [15],3 (Herbicidal rate of 40% or more and less than 70%)
same,"N: redroot pigweed, herbicidal effect rating",redroot pigweed [16],3 (Herbicidal rate of 40% or more and less than 70%)
same,"G: green foxtail, herbicidal effect rating",green foxtail [17],4 (Herbicidal rate of 70% or more and less than 90%)
same,herbicidal effect on M: velvetleaf (criteria 0-5),velvetleaf [18],3 (Herbicidal rate of 40% or more and less than 70%)
same,herbicidal effect on D: Chinese sprangletop,Chinese sprangletop,3 (Herbicidal rate of 40% or more and less than 70%)
same,"K: Italian ryegrass, herbicidal effect rating",Italian ryegrass [19],3 (Herbicidal rate of 40% or more and less than 70%)
same,"J: blackgrass, herbicidal effect rating",blackgrass [20],0 (Herbicidal rate of 5% or less (almost no effect))
same,"I: wild oat, herbicidal effect rating",wild oat [21],0 (Herbicidal rate of 5% or less (almost no effect))
same,"M: velvetleaf, herbicidal effect rating",velvetleaf [22],0 (Herbicidal rate of 5% or less (almost no effect))
same,"F: southern crabgrass, herbicidal effect rating",southern crabgrass [23],3 (Herbicidal rate of 40% or more and less than 70%)
same,"L: windgrass, herbicidal effect rating",windgrass [24],0 (Herbicidal rate of 5% or less (almost no effect))
same,"H: barnyard grass, herbicidal effect rating",barnyard grass [25],5 (Herbicidal rate of 90% or more (almost completely withered))
